Measured values from ChEMBL document CHEMBL1141398, “Metastin (KiSS-1) mimetics identified from peptide structure-activity relationship-derived pharmacophores and directed small molecule database screening” (J Med Chem, 2007).
Activity calls are given as the source filed them. No cut-off for these calls is given here.

Molecular target: KiSS-1 receptor (Homo sapiens, UniProt Q969F8)
Test: Activity at metastin receptor expressed in HEK293 cells by measuring calcium release at 100 uM
Assay type: functional, cell-based

Chain of KiSS-1 receptor (Q969F8 whole entry): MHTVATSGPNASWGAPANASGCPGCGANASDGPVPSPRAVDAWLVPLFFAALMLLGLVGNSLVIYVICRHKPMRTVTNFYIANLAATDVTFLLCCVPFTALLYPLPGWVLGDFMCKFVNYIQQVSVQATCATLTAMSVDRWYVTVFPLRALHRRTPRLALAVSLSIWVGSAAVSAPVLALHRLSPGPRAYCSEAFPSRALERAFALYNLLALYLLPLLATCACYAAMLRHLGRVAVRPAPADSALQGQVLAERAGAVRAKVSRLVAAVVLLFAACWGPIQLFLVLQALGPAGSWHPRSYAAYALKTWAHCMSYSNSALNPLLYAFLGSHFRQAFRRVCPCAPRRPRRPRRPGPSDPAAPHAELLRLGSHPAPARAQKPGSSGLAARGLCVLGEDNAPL

- Activity: Active
SMILES: CC(C)(C)CC(C)(C)c1ccc(OCCOCC[N+](C)(C)Cc2ccccc2)cc1 [BENZETHONIUM CHLORIDE]
